Experimental data from patent publication US6034085A, “Salt form of nefazodone for use in extended release formulations” (Bristol-Myers Squibb Co., priority 1998, dated 2000).
“Also recorded” adds a separate entry of the source. Structures can show the parent of a compound that is named as a salt. Where two headings read alike, the source gives them in different places.

How the values were obtained:
[1] = Intrinsic dissolution of various nefazodone salts in water at 37° C.; assay type: physicochemical; conditions: for Intrinsic Dissolution Rate: n = 2; for Final pH: pH of the aqueous medium after dissolution had occurred
Experimental: Table 1 sets out intrinsic dissolution rates for various salts of nefazodone in water at 37° C. The final pH value is the pH of the aqueous medium after dissolution had occurred. […] Note, however, that the tosylate salt's dissolution rate is also slow even though the media is acidic in nature.
The intrinsic dissolution experiments were performed with 75 mL water as the dissolution medium. The details of these dissolution experiments are summarized below:
Container: Double-walled beaker, 100 mL capacity, round bottom.
Volume of sample withdrawn per interval: 1 mL.
Temperature of the solution in the beaker was maintained by means of a circulating waterbath. The medium was stirred with a USP II paddle using 100 rpm stirring rate (paddle depth=1 inch below the surface of the medium). Samples were withdrawn through a 0.45 μm syringe filter and were analyzed without any further dilution or treatment by HPLC (Method 1).

[2] = cited from earlier work
[3] = Drug release from tablets in simulated gastric fluid pH 1.2 (FIG. 2); assay type: physicochemical; conditions: pH 1.2, 37° C.
Experimental: (§1) The curves are plotted as percent nefazodone released over time in hours.
(§2) Remaining dissolution experiments were made with the nefazodone salts formulated into tablets as described more fully infra. Essentially, the tablets were comprised of a nefazodone salt, hydroxypropylcellulose, lactose and magnesium stearate.
(§3) Release Profiles from the Tablet Formulation
(§4) The preparation and characterization of tablets of salts of nefazodone was performed as described below:
(§5) The nefazodone salt, hydroxypropyl cellulose EF and lactose were mixed for 10-15 minutes. Magnesium stearate was added to this mixture, mixing it for five more minutes. Tablets were compressed using a Manesty machine (Model-Manesty B3B). The tablet hardness was approximately 7 SCU.
(§6) Dissolution studies were performed with a USP II apparatus in simulated gastric fluid (USP, pH 1.2), simulated intestinal fluid (USP, pH 7.5) and 0.5 M THAM (pH 7.7). The details of conditions for the dissolution experiments are as follows:
(§7) […]: 900 mL.
(§8) Sample volume withdrawn at each interval: 0.7 mL.
(§9) Samples were filtered during withdrawal and chromatographed without further dilution or treatment. Samples were analyzed by Waters HPLC system. The HPLC conditions are listed in Method 2 below.

[4] = extended release formulations, cited from earlier work
[5] = Drug release from tablets in 0.5M THAM buffer (FIG. 4); assay type: physicochemical; conditions: 37° C.
Experimental: as §1, §2, §3, §4, §5
The details of conditions for the dissolution experiments are as follows:
as §7, §8, §9

[6] = Stability under pharmaceutical processing and storage; assay type: physicochemical; conditions: pharmaceutical processing/handling and storage; listed as mesylate salt
[7] = Dissolution of powdered nefazodone salts in 0.125M THAM buffer (FIG. 1); assay type: physicochemical; conditions: powder, pH 7.5, 37° C.
Experimental: The curves are plotted as cumulative amounts of nefazodone versus time in minutes.
To assess solubility in non-acidic media, dissolution rates were determined for selected nefazodone salts in THAM buffer (0.125M, pH 7.5) made by dissolving tri(hydroxymethyl)aminomethane in water and adjusting the pH with conc. hydrochloride acid.
Intrinisic Dissolution Experiments in THAM
THAM buffer was prepared by dissolving tri(hydroxymethyl)aminomethane in water and adjusting the pH with concentrated hydrochloric acid. Dissolution of salts of nefazodone in powder form was studied in this medium.
The experiments were conducted in 0.125 M THAM (pH 7.7) at 37° C. using the USP II dissolution apparatus. Nefazodone […] in powder form (about 75-80 mg) were added to 900 mL dissolution medium stirred at 50 rpm and samples were withdrawn at time points up to 2 hours. The USP official method recommends paddles to be 1 inch from the bottom. In this experiment, paddles were 3/4 inch from the bottom. The paddle depth was altered to facilitate suspension of the powder during experiments. Samples were analyzed using HPLC assay.

[8] = Drug release from tablets in simulated intestinal fluid pH 7.5 (FIG. 3); assay type: physicochemical; conditions: pH 7.5, 37° C.
Experimental: as §1, §2, §3, §4, §5, §6, §7, §8, §9

[9] = Aqueous solubility of nefazodone as a function of pH; assay type: physicochemical; conditions: gastrointestinal tract / pH range
[10] = cited from earlier work; remark: listed apart in the source

CCc1nn(CCCN2CCN(c3cccc(Cl)c3)CC2)c(=O)n1CCOc1ccccc1 [Acetate]
solubility / dissolution rate in water [1]: Low solubilities
Intrinsic Dissolution Rate [1]: 0.03 mg/min/cm 2
Final pH [1]: 5.4

CCc1nn(CCCN2CCN(c3cccc(Cl)c3)CC2)c(=O)n1CCOc1ccccc1 [D-Malate]
Intrinsic Dissolution Rate [1]: 1.15 mg/min/cm 2
Final pH [1]: 4.2

CCc1nn(CCCN2CCN(c3cccc(Cl)c3)CC2)c(=O)n1CCOc1ccccc1 [D-Tartrate]
Intrinsic Dissolution Rate [1]: 1.13 mg/min/cm 2
Final pH [1]: 3.7

CCc1nn(CCCN2CCN(c3cccc(Cl)c3)CC2)c(=O)n1CCOc1ccccc1 [DL-Malate]
Intrinsic Dissolution Rate [1]: 0.98 mg/min/cm 2
Final pH [1]: 4.3

CCc1nn(CCCN2CCN(c3cccc(Cl)c3)CC2)c(=O)n1CCOc1ccccc1 [DL-Tartrate]
Intrinsic Dissolution Rate [1]: 1.2 mg/min/cm 2
Final pH [1]: 3.7

CCc1nn(CCCN2CCN(c3cccc(Cl)c3)CC2)c(=O)n1CCOc1ccccc1 [Hydrochloride, reference compound]
solubility in the intestinal tract ([2]; intestinal tract, pH ranges from about 5-7): low solubility
Intrinsic Dissolution Rate [1]: 0.93 mg/min/cm 2
Final pH [1]: 4.4
drug release from tablets ([3]; listed as hydrochloride salt): good solubility
bioavailability [4]: low observed bioavailability

CCc1nn(CCCN2CCN(c3cccc(Cl)c3)CC2)c(=O)n1CCOc1ccccc1 [L-Malate]
Intrinsic Dissolution Rate [1]: 1.36 mg/min/cm 2
Final pH [1]: 4.2

CCc1nn(CCCN2CCN(c3cccc(Cl)c3)CC2)c(=O)n1CCOc1ccccc1 [L-Tartrate]
Intrinsic Dissolution Rate [1]: 0.97 mg/min/cm 2
Final pH [1]: 3.8

CCc1nn(CCCN2CCN(c3cccc(Cl)c3)CC2)c(=O)n1CCOc1ccccc1 [Maleate]
Intrinsic Dissolution Rate [1]: 0.30 mg/min/cm 2
Final pH [1]: 4.8

CCc1nn(CCCN2CCN(c3cccc(Cl)c3)CC2)c(=O)n1CCOc1ccccc1 [Mesylate]
drug release from tablets [5]: outperforms the others
stability [6]: stable solid; also recorded: stable under conditions of pharmaceutical processing and storage
concentration of drug dissolved compared to the hydrochloride salt [7]: in the higher grouping, the mesylate is not the best of those shown
Intrinsic Dissolution Rate [1]: 2.7 mg/min/cm 2
Final pH [1]: 4.0
drug release from tablets [3]: good but not excessive dissolution
drug release from tablets ([3]; listed as mesylate salt): more modest release
drug release from tablets [8]: best of class dissolution
drug release from tablets ([8]; listed as mesylate salt): performs better than the other salts
solubility throughout the gastrointestinal tract [9]: exhibit solubility throughout the gastrointestinal tract

CCc1nn(CCCN2CCN(c3cccc(Cl)c3)CC2)c(=O)n1CCOc1ccccc1 [Nefazodone base]
aqueous solubility ([2]; pH values greater than 6): low aqueous solubility
solubility / dissolution rate in water [1]: Low solubilities
Intrinsic Dissolution Rate [1]: 0.002 mg/min/cm 2
Final pH [1]: 7.2
pka ([10]; first of two pka values): about 6.4
pka ([10]; second of two pka values): ~9.5
nefazodone release in the human intestinal tract ([4]; pH approaches neutrality): inhibited

CCc1nn(CCCN2CCN(c3cccc(Cl)c3)CC2)c(=O)n1CCOc1ccccc1 [Succinate]
solubility / dissolution rate in water [1]: Low solubilities
Intrinsic Dissolution Rate [1]: 0.16 mg/min/cm 2
Final pH [1]: 5.0

CCc1nn(CCCN2CCN(c3cccc(Cl)c3)CC2)c(=O)n1CCOc1ccccc1 [Tosylate]
solubility / dissolution rate in water [1]: slow
Intrinsic Dissolution Rate [1]: 0.1 mg/min/cm 2
Final pH [1]: 4.4
